Assay results reported in patent publication US20250163078A1, “IMIDAZOPYRIDAZINE DERIVATIVE, AND PREPARATION METHOD THEREFOR, PHARMACEUTICAL COMPOSITION THEREOF AND USE THEREOF” (SHANGHAI SIMR BIOTECHNOLOGY CO., LTD., priority 2022, published 2025).

Columns and labels:
[1] = molecular target: T1, α2-GABAA receptor (Homo sapiens, UniProt P18507+P47869); assay: Whole-cell patch-clamp electrophysiological test of positive allosteric modulation, α2-GABAAR-HEK293 cells; type: cell-based; conditions: compound 100 nM; GABA 0.10-0.11 M [sic] (about EC70.8); normalised to positive compound CVL-865 (=100%); read-out: Positive allosteric modulation activity on α2-GABAAR
T1 construct: expressed in transfected cells
From the text: (§1) An α subunit, a β subunit, and a γ subunit are essential for the formation of a complete functional GABAA receptor. […] The α1-GABAAR-HEK293 cell model simultaneously expressed the α1 subunit (protein sequence available in GenBank with an accession No.: NM_000806.5), the β3 subunit (protein sequence available in GenBank with an accession No.: NM_000814.5), and the γ2 subunit (protein sequence available in GenBank with an accession No.: NM_000816.3). The α2-GABAAR-HEK293 cell model simultaneously expressed the α2 subunit (protein sequence available in GenBank with an accession No.: NM_000807.4), the β3 subunit (protein sequence available in GenBank with an accession No.: NM_000814.5), and the γ2 subunit (protein sequence available in GenBank with an accession No.: NM_000816.3).
(§2) The above cell lines were subcultured. The α2-GABAAR-HEK293 cells were expanded for assay of the benzodiazepine (BZD) site affinity of compounds for GABAA receptors.
(§3) The positive regulation activity of the test drugs on the α1-GABAA receptor and the α2-GABAA receptor was detected by the electrophysiological method. The specific method was as follows:
(§4) Compound concentration setting: the final concentration of the compounds used for screening was 100 nM. […] The components of the extracellular solution (ECS) for electrophysiology were as follows: 150 mM NaCl, 5 mM KCl, 2.5 mM CaCl2, 1 mM MgCl2, 10 mM HEPES, and 10 mM glucose (pH 7.4); the formulation of the intracellular solution (ICS) of electrodes for electrophysiology was as follows: 140 mM CsCl, 11 mM EGTA, 10 mM HEPES, 2 mM CaCl2, 1 mM MgCl2, 4 mM MgATP, and 2 mM TEA (pH 7.3). GABA (γ-aminobutyric acid) powder was prepared into a mother liquor with pure water, which was then diluted in ECS; the compounds were first prepared into 4 mM mother liquors with dimethyl sulfoxide and then gradually diluted to corresponding concentrations in GABA-ECS. The solutions were all prepared freshly prior to the electrophysiological test.
(§5) Electrophysiological signal acquisition was performed using an EPC 10 amplifier and PatchMaster software (HEKA) or an Axon700B amplifier and Clampex software (AXON).
(§6) The recording electrode was made by pulling borosilicate glass, with an electrode resistance of 4-6 MΩ. Extracellular administration was performed using the ALA-VC-8PG™ system. A single, independently growing cell was selected. After the glass electrode formed a good seal with the cell, the membrane was ruptured to form the whole-cell configuration. The cell membrane potential was clamped at −60 mV and recorded in Gap-free mode. During the test, the extracellular solution was first applied extracellularly for about 20 s. After the baseline (Iprebaseline) stabilized, the extracellular solution was switched to GABA-ECS. At this time, the current caused by GABA (Igaba) could be detected. After about 10-20 s, when the current stabilized, the extracellular solution was switched to a mixed solution of the compound and GABA-ECS. At this point, the current caused by both the compound and GABA (Itreatment) could be detected. Finally, the solution was switched to the extracellular solution, and the test was terminated after recording for 20-40 s.
(§7) The current values at each stage were calculated based on the average value of the current after stabilization under the corresponding conditions. We defined the control current as Igaba−Iprebaseline, and the current after compound treatment as Itreatment−Iprebaseline. The allosteric modulation activity of the compounds was expressed as a percentage, calculated by the following formula: functional activity=[(Itreatment−Igaba)/(Igaba−Iprebaseline)]×100%.

[2] = molecular target: T2, α1-GABAA receptor (Homo sapiens, UniProt P14867+P18507); assay: Whole-cell patch-clamp electrophysiological test of positive allosteric modulation, α1-GABAAR-HEK293 cells; type: cell-based; conditions: compound 100 nM; GABA about EC2-4; normalised to positive compound CVL-865 (=100%); negative value = reverse allosteric modulation; read-out: Positive allosteric modulation activity on α1-GABAAR
T2 construct: expressed in transfected cells
From the text: as §1, §2, §3, §4, §5, §6, §7

[3] = molecular target: T1, α2-GABAA receptor; assay: Radioligand (3H-flunitrazepam) competitive binding assay at the BZD site; conditions: membranes of HEK293 cells stably expressing human α2-GABAA receptor (α2β3γ2); 1 nM 3H-flunitrazepam; Ki calculated from IC50; read-out: α2 Ki
From the text: as §1, §2
The affinity of the compounds for the α2-GABAA receptor was determined by competing with ^3H-flunitrazepam (isotope ^3H-labelled flunitrazepam) for binding to the BZD site on the membrane proteins of HEK293 cells stably expressing the human α2-GABAA receptor.
Membrane preparation: The cells were suspended in 50 mM Tris-HCl buffer (pH=7.4), homogenized 10 times (20 s for each time) with a homogenizer on ice, and then centrifuged at 4° C. at 1000 g for 10 min. The supernatant was taken. The above steps were repeated. The supernatant was centrifuged (33800 g; Thermo, rotor: A27-8×50) at 4° C. for 60 min. The pellet was resuspended in Tris buffer (50 mM Tris-HCl, 10 mM MgCl2, 0.5 mM EDTA, and 10% glycerol). The protein content was determined (BCA (bicinchoninic acid) protein quantification assay based on the copper ion reduction method, with a BCA kit purchased from Pierce (Annoron (Beijing) Biotechnology Co., Ltd.)), and 1 mL aliquots were prepared and stored at −80° C.
Radioligand competitive binding assay: This assay was performed in a 200 μL system (96-well plate) containing 100 μL of cell membranes. The concentration of ^3H-flunitrazepam was 1 nM, and the concentrations of the test compounds were in the range of […]. Flumazenil was used as a control. To each low control (LC) well was added 1 μL of 2 mM flumazenil (the final concentration of 10 μM), and to each high control (HC) well was added 1 μL of dimethyl sulfoxide. The final concentration of the target membrane protein was […]. All sample stock solutions of test compounds were 10 mM solutions in dimethyl sulfoxide. All the samples were diluted to a concentration of 0.2 mM with dimethyl sulfoxide, and then subjected to a 4-fold serial dilution to give a total of 8 working concentration gradients. The 96-well plate was sealed with a plate sealing membrane and then incubated on a shaker at room temperature for 1 h. Meanwhile, a GF/C filter plate was soaked in a plate soaking buffer (0.3% PEI (polyethyleneimine, purchased from: Sigma-Aldrich, model: P314), stored at 4° C.) for at least 0.5 h. After the binding incubation was completed, the cells were harvested onto the GF/C filter plate using a cell harvester and washed 4 times with a washing buffer (50 mM Tris-HCl, pH 7.4, stored at 4° C.). After drying in an oven at 50° C. for 1 h, the dried GF/C filter plate was bottom-sealed. The residual radioactivity on the filter membrane was detected by liquid scintillation counting. Scintillation fluid was added at 50 µL/well, and then the plate was sealed. Readings were taken using Microbeta^2 (microplate counter, purchased from: PerkinElmer, model: CNLL0153). The inhibitory activity of the test samples on the binding of ^3H-flunitrazepam to the GABAA receptor membrane protein was calculated.

Row | Compound | activation at 0.1 µM [1] | activation at 0.1 µM [2] | Ki [3]
1 | CCn1cnc2c(-c3ccc(F)c(-c4ccn5c(C6CC6)nnc5c4COC)c3)cnnc21 [Example 1, 4-(3-(3-Cyclopropyl-8-(methoxymethyl)-[1,2,4]triazolo[4,3-a]pyridin-7-yl)-4-fluorophenyl)-7-ethyl-7H-imidazo[4,5-c]pyridazine] | 129% | 70% | 10.5 nM
2 | CCn1cnc2c(-c3ccc(F)c(-c4ccn5c(C6CC(OC)C6)nnc5c4OC)c3)cnnc21 (centres unmarked) [Example 6, 7-Ethyl-4-(4-fluoro-3-(8-methoxy-3-(3-methoxycyclobutyl)-[1,2,4]triazolo[4,3-a]pyridin-7-yl)phenyl)-7H-imidazo[4,5-c]pyridazine] | 118% | -16% | 
3 | CCn1cnc2c(-c3ccc(F)c(-c4cn5cc(C6(F)CC6)nc5cc4OC)c3)cnnc21 [Example 12, 7-Ethyl-4-(4-fluoro-3-(2-(1-fluorocyclopropyl)-7-methoxyimidazo[1,2-a]pyridin-6-yl)phenyl)-7H-imidazo[4,5-c]pyridazine] | 104% | 32% | 5.79 nM
4 | CCn1cnc2c(-c3ccc(F)c(-c4ccn5c(C6CCOC(C)(C)C6)nnc5c4OC)c3)cnnc21 (centres unmarked) [Example 16, 4-(3-(3-(2,2-Dimethyltetrahydro-2H-pyran-4-yl)-8-methoxy-[1,2,4]triazolo[4,3-a]pyridin-7-yl)-4-fluorophenyl)-7-ethyl-7H-imidazo[4,5-c]pyridazine] | 95% | -56% | 8.17 nM
5 | CCn1cnc2c(-c3ccc(F)c(-c4ccn5c(C6CCC6)nnc5c4OC)c3)cnnc21 [Example 17, 4-(3-(3-Cyclobutyl-8-methoxy-[1,2,4]triazolo[4,3-a]pyridin-7-yl)-4-fluorophenyl)-7-ethyl-7H-imidazo[4,5-c]pyridazine] | 100% | -49% | 2.85 nM
6 | COc1c(-c2cc(-c3cnnc4c3ncn4C(C)C)ccc2F)ccn2c(C3CC3)nnc12 [Example 27, 4-(3-(3-Cyclopropyl-8-methoxy-[1,2,4]triazolo[4,3-a]pyridin-7-yl)-4-fluorophenyl)-7-isopropyl-7H-imidazo[4,5-c]pyridazine] | 110% | 4% | 6.05 nM
7 | CCn1cnc2c(-c3ccc(F)c(-c4ccn5c(C6COC6)nnc5c4OC)c3)cnnc21 [Example 28, 7-Ethyl-4-(4-fluoro-3-(8-methoxy-3-(oxetan-3-yl)-[1,2,4]triazolo[4,3-a]pyridin-7-yl)phenyl)-7H-imidazo[4,5-c]pyridazine] | 126% | 19% | 5.12 nM
8 | CCn1cnc2c(-c3ccc(F)c(-c4ccn5c(C(C)C)nnc5c4OC)c3)cnnc21 [Example 29, 7-Ethyl-4-(4-fluoro-3-(8-methoxy-3-isopropyl-[1,2,4]triazolo[4,3-a]pyridin-7-yl)phenyl)-7H-imidazo[4,5-c]pyridazine] | 156% | -51% | 6.6 nM
9 | CCc1cn2cc(-c3cc(-c4cnnc5c4ncn5CC)ccc3F)c(OC)cc2n1 [Example 30, 7-Ethyl-4-(3-(2-ethyl-7-methoxyimidazo[1,2-a]pyridin-6-yl)-4-fluorophenyl)-7H-imidazo[4,5-c]pyridazine] | 143% | 6% | 12 nM
10 | CCn1cnc2c(-c3ccc(F)c(-c4ccn5c(C)nnc5c4OC)c3)cnnc21 [Example 32, 7-Ethyl-4-(4-fluoro-3-(8-methoxy-3-methyl-[1,2,4]triazolo[4,3-a]pyridin-7-yl)phenyl)-7H-imidazo[4,5-c]pyridazine] | 102% | -39% | 2.89 nM
11 | CCn1cnc2c(-c3ccc(F)c(-c4ccn5c(C6CCOCC6)nnc5c4OC)c3)cnnc21 [Example 34, 7-Ethyl-4-(4-fluoro-3-(8-methoxy-3-(tetrahydro-2H-pyran-4-yl)-[1,2,4]triazolo[4,3-a]pyridin-7-yl)phenyl)-7H-imidazo[4,5-c]pyridazine] | 95% | 25% | 8.13 nM
12 | CCn1cnc2c(-c3ccc(F)c(-c4cn5cc(C6CCOCC6)nc5cc4OC)c3)cnnc21 [Example 36, 7-Ethyl-4-(4-fluoro-3-(7-methoxy-2-(tetrahydro-2H-pyran-4-yl)imidazo[1,2-a]pyridin-6-yl)phenyl)-7H-imidazo[4,5-c]pyridazine] | 89% | 49% | 11.8 nM
13 | CCn1cnc2c(-c3ccc(F)c(-c4ccn5c(C6CC6)nnc5c4OC)c3)cnnc21 [Example 38, 4-(3-(3-Cyclopropyl-8-methoxy-[1,2,4]triazolo[4,3-a]pyridin-7-yl)-4-fluorophenyl)-7-ethyl-7H-imidazo[4,5-c]pyridazine] | 94% | -14% | 6.53 nM
14 | CCn1cnc2c(-c3ccc(F)c(-c4cn5cc(C(F)F)nc5cc4OC)c3)cnnc21 [Example 41, 4-(3-(2-(Difluoromethyl)-7-methoxyimidazo[1,2-a]pyridin-6-yl)-4-fluorophenyl)-7-ethyl-7H-imidazo[4,5-c]pyridazine] | 178% | 59% | 0.11 nM
